Common to all, as to assay type: in vitro ADME
The target in one series is T1, CYP2E1 (Homo sapiens, UniProt P05181).
T1 construct: purchased Corning Life Sciences (Woburn, MA, USA)
As to the kind of experiment: Intrinsic clearance using recombinant CYPs: CYP2E1. As for the experimental part:
The elimination profiles of tegoprazan and M1 were assessed using rCYPs. All the assay procedures were performed according to the manufacturer’s instructions. Master mix (1.399 mL), containing the NADPH-generating system, 3.3 mM of glucose 6-phosphate, PBS buffer, deionized water, and each rCYP (25 pmol/μL of CYP2C8, 2C19, and 2E1 and 50 pmol/μL of CYP3A4, 2C9, and 2D6), was added to a microtube and pre-incubated at 37 °C for 5 min. Next, 1 μM tegoprazan and M1 were added and incubated at 37 °C for 0, 5, 10, 20, 30, 45, and 60 min. A total of 100 μL of the sample, incubated for predefined duration, was transferred to a fresh e-tube. Next, 200 μL of acetonitrile containing tegoprazan-d6 (0.5 μM) was added, vortexed for 5 min, and centrifuged at 16,200× g and 4 °C for 10 min. The concentrations of the remaining tegoprazan and M1 were determined by LC–MS/MS. All experiments were performed in duplicate. CLint,rCYP levels were assessed using the results of the disappearance test. […] The CLint resulting from rCYPs was calculated using Equation (3):(3) CLint,rCYP(μL/min/pmol CYP)=0.693/t1/2×1400/concentration of CYP
Caco-2 and rCYP samples were quantified using LC-MS/MS (UPLC® I-class coupled with TQ-MS (Waters, Milford, MA, USA). The mobile phase comprised (a) 0.1% formic acid and (b) acetonitrile containing 0.1% formic acid. Gradient elution at a flow rate of 0.3 mL/min was applied. Tegoprazan, M1, and the internal standard (tegoprazan-d6) were optimized in electrospray ionization positive mode. Acetonitrile with 0.1 μM of tegoprazan-d6 was added to the collected Caco-2 or rCYP samples. Then, processed samples were centrifuged at 13,000× g for 20 min. After centrifugation, 100 μL of supernatant was transferred to an LC-MS vial and analyzed using LC-MS/MS. […] The stability of tegoprazan was evaluated, and it satisfied the acceptance criteria (coefficient of variances was within 15%) under variable conditions including reinjection, processed sample stability (PSS), and short-term stability for the stock and sample.

The next series deals with Caco-2 cells. Put plainly: Caco-2 permeability assay. Particulars: pH 7.4/7.4, 10 µM; for Papp / Transport Rate: single replicates; for Recovery: single replicates A-C. As for the experimental part:
(§1) Caco-2 cells were cultured in DMEM supplemented with 20% FBS, 1% non-essential amino acids, and 1% penicillin-streptomycin. Caco-2 cells were seeded onto collagen-coated 12-Transwell membranes at a density of 5 × 10^5 cells/mL and incubated under optimal conditions (maintained at 37 °C in a humidified atmosphere with 5% CO2/95% air) for 21 days. The culture medium was replaced every second day. For the experiments, after the growth medium was removed, the attached cells were washed with pre-warmed HBSS (pH 7.4) and pre-incubated with HBSS for 20 min at 37 °C. The integrity of the cell monolayers was evaluated before and after the permeability experiments by measuring transepithelial electrical resistance (TEER) values using an epithelial volt/ohm meter (World Precision Instruments, Sarasota, FL, USA). Caco-2 cells with TEER values higher than 300 Ω∙cm^2 were used for permeability experiments, and alterations in TEER values were less than 10% in all cases (i.e., 417.3 ± 6.3 Ω∙cm^2 and 400.8 ± 3.5 Ω∙cm^2, before and after the permeability experiments, respectively).
(§2) To determine the apical to basal (A to B) permeability of tegoprazan, 0.5 mL of HBSS containing 10 µM tegoprazan and 1.5 mL of fresh HBSS were added to the apical and basal side of the insert, respectively. The insert was transferred to a new well that contained 1.5 mL of fresh HBSS every 15 min, for 1 h. Aliquots (0.3 mL) on the basal side were transferred to fresh tubes and stored at −80 °C until further analysis. To investigate B-to-A permeability, 1.5 mL of HBSS containing 10 µM tegoprazan and 0.5 mL of fresh HBSS were added to the basal and apical sides of the insert, respectively. Aliquots (0.3 mL) on the apical side were transferred to fresh tubes, and 0.3 mL of pre-warmed fresh HBSS was replaced every 15 min for 1 h. The transport study was performed for 1 h based on the linearity of the cumulative transported tegoprazan amount versus transport time. The cumulative transported amount was calculated as the sum of transported amounts for 0–15 min, 15–30 min, 30–45 min, and 45–60 min, and the transport rate of tegoprazan was the slope of the regression line derived from the cumulative transported amount versus time plot. The apparent permeability (Papp) was calculated from the following Equation (2):(2) Papp(10^−6cm/s)=transport rate (nmol/min)/concentration (μM)× area(cm^2)×60 s
(§3) Caco-2 and rCYP samples were quantified using LC-MS/MS (UPLC® I-class coupled with TQ-MS (Waters, Milford, MA, USA). The mobile phase comprised (a) 0.1% formic acid and (b) acetonitrile containing 0.1% formic acid. Gradient elution at a flow rate of 0.3 mL/min was applied. Tegoprazan, M1, and the internal standard (tegoprazan-d6) were optimized in electrospray ionization positive mode. Acetonitrile with 0.1 μM of tegoprazan-d6 was added to the collected Caco-2 or rCYP samples. Then, processed samples were centrifuged at 13,000× g for 20 min. After centrifugation, 100 μL of supernatant was transferred to an LC-MS vial and analyzed using LC-MS/MS. The analytical method was validated based on the Bioanalytical Method Validation Guidance for Industry published by the US Food and Drug Administration and the Guideline on Bioanalytical Method Validation published by the Korean Ministry of Food and Drug Safety (MFDS). Linearity was in the range of 0.1–20 µM, and the inter-batch accuracy and precision were in the ranges of 91.8–101.3% and 2.3–8.9%, respectively. The stability of tegoprazan was evaluated, and it satisfied the acceptance criteria (coefficient of variances was within 15%) under variable conditions including reinjection, processed sample stability (PSS), and short-term stability for the stock and sample.
For orientation: Passage across Caco-2 layers is used to estimate intestinal permeability.

The nature of series [1]: Caco-2 permeability assay. Particulars: human. As for the experimental part:
as §1, §2, §3

The source of these data is publication PMC9230797, “Integration of a Physiologically Based Pharmacokinetic and Pharmacodynamic Model for Tegoprazan and Its Metabolite: Application for Predicting Food Effect and Intragastric pH Alterations” (Pharmaceutics, 2022).

Where “and” joins values, the source holds several entries; their conditions need not be identical. Identical values can stand only once. Like-named read-outs stand apart in the source and are kept apart here.

The half-life is the time needed for the level to fall by half in the phase considered. Broadly, the Papp is a coefficient for how fast a substance crosses the barrier.

T1 sequence (P05181 whole entry): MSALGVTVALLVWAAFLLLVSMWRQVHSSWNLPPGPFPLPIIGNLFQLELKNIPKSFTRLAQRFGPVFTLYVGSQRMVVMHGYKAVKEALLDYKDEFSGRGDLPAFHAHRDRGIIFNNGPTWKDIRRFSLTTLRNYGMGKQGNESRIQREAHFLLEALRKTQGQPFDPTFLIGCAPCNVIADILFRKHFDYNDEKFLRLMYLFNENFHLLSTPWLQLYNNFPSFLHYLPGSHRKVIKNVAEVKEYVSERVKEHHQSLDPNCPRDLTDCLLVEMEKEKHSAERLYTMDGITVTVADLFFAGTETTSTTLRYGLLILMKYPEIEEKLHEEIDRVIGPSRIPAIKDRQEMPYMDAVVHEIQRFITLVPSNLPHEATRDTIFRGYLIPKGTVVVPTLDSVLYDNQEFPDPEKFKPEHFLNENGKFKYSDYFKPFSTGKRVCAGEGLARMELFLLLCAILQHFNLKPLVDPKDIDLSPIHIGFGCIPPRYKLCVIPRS

Consider `Cc1nc2cc(C(=O)N(C)C)cc(O[C@H]3CCOc4cc(F)cc(F)c43)c2[nH]1` [tegoprazan], for which, on CYP2E1 (1 μM, experimental data), the “CLint, CYP2E1” value was 0.03 µL/min/pmol and 0.030 µL/min/pmol. Moreover, on CYP2E1 (human, recombinant CYP2E1, rCYP2E1), the half-life at 1 μM was 693 min. Besides, the “Slope (disappearance)” value on CYP2E1 (rCYP2E1, 1 μM) is -0.001. In addition, the Papp in the series on Caco-2 cells (A to B) is 1.101e-05 cm/s and 1.323e-05 cm/s; in the series on Caco-2 cells (B to A), 1.036e-05 cm/s and 1.336e-05 cm/s. The “Transport Rate” value with Caco-2 cells (A to B) was 0.56 nmol/h and 0.48 nmol/h; with Caco-2 cells (B to A), 0.49 nmol/h and 0.46 nmol/h and 0.53 nmol/h. The Recovery with Caco-2 cells (A to B) is 86.4%; in the series on Caco-2 cells (B to A), 88.7% and 78.3%. The apparent permeability coefficient (Papp) at 1 h, 10 µM came to 12.5 ×10⁻⁶ cm/s in series [1] (Caco-2, pH 7.4, A to B, pH 7.4/7.4, 10 µM, read-out: Papp, Mean); 13.4 ×10⁻⁶ cm/s in series [1] (Caco-2, pH 7.4, A to B, pH 7.4/7.4, 10 µM, single replicates, read-out: Papp); 11.7 ×10⁻⁶ cm/s in series [1] (Caco-2, pH 7.4, B to A, pH 7.4/7.4, 10 µM, read-out: Papp, Mean); 11.4 ×10⁻⁶ cm/s in series [1] (Caco-2, pH 7.4, B to A, pH 7.4/7.4, 10 µM, single replicates, read-out: Papp); 12.5 ×10⁻⁶ cm/s in series [1] (Caco-2, pH 7.4, initial model value (experimental), read-out: Papp,caco-2). Moreover, the recovery at 1 h, 10 µM in series [1] (Caco-2, pH 7.4, A to B, pH 7.4/7.4, 10 µM, read-out: Recovery, Mean) stood at 84.5%; in series [1] (Caco-2, pH 7.4, A to B, pH 7.4/7.4, 10 µM, single replicates A-C, read-out: Recovery) it was 82.7%; in series [1] (Caco-2, pH 7.4, B to A, pH 7.4/7.4, 10 µM, read-out: Recovery, Mean) it was 84.3%; in series [1] (Caco-2, pH 7.4, B to A, pH 7.4/7.4, 10 µM, single replicates A-C, read-out: Recovery), 85.9%.
